Laboratory results taken from ChEMBL document CHEMBL1126245, “Synthesis and anti-HIV activity of 9-[c-4,t-5-bis(hydroxymethyl)cyclopent-2-en-r-1-yl]-9H-adenine” (J Med Chem, 1992).
In brackets after ≈: the same amount, converted by molar mass.

How the values were obtained:
[1] = Therapeutic index (TI) was determined by dividing the ID50 by the ED50; format: cell-based; settings: human, MT4 cells; read-out: TI
[2] = tested on: MT4; experiment: In vitro antiviral activity against HIV-1 in MT-4 Cell; format: functional; settings: Homo sapiens; for EC50: read-out: ED50 (the source's name); for IC50: read-out: ID50 (the source's name)

SMILES	selectivity ratio [1]	EC50 [2] [µg/mL]	IC50 [2] [µg/mL]
Nc1ccn([C@H]2CC[C@@H](CO)O2)c(=O)n1 [ZALCITABINE]	2450	0.011 (≈ 0.0521 µM)	27 (≈ 128 µM)
Nc1nc(O)c2ncn(C3C=CC(CO)C3CO)c2n1 (stereo not given)	–	> 100	> 100
